pIC50: −log10 of the molar value. In brackets after ≈: the same amount, converted by molar mass. Read-outs that look alike come from different tables or passages of the source.
Legend:
PI3Kα = PI3Kα (Homo sapiens (Human), UniProt P42336); test: In vitro enzyme assay (Kinase-Glo), selectivity, PI3Kα; format: biochemical; conditions: enzyme 2.29 μg/mL; ATP 10 μM; PIP2 60 μM; 2 hours
Description: (§1) The Kinase-Glo luminescent kinase assay kit (from Promega) was used to measure kinase activity. In this assay, amount of ATP remaining in solution following a kinase reaction is measured. The effect of compounds on PI3Kδ inhibition was carried out by adding 2.29 μg/ml of recombinant PI3K δ enzyme (Proteros, Germany) to reaction mixture containing assay buffer (50 mM HEPES, pH 7.4, 50 mM NaCl, 0.05% CHAPS) supplemented with 10 mM MgCl2, 5 mM DTT, 60 μM Phosphatidyl inositol bisphosphate (PIP2) and 10 μM ATP in the absence or presence of different concentrations of the compounds in a final volume of 15 μl/well, in a 384 well plate. The reaction mixture was incubated for 2 hours at room temperature. At the end of incubation period the equal volume of Kinase-Glo plus (Promega, V3772), was added per well and the luminescence was measured after incubating for 10 minutes at room temperature in dark. Results were calculated by measuring the luminescence units of test samples to blanks containing no enzyme.
(§2) The compounds of the present invention were tested for their selectivity for PI3Kδ over PI3Kα, PI3Kβ and PI3Kγ following the above assay using specific recombinant enzymes (Proteros, Germany) for each kinase. Assay condition of kinase assay (PI3Kα, PI3Kβ, PI3Kγ and PI3Kδ) was as follows. Enzyme: 2.29 μg/mL; ATP: 10 μM; PIP2 substrate: 60 μM and Reaction Time: 2 hours.

PI3Kγ = PI3Kγ (Homo sapiens (Human), UniProt P48736); test: In vitro enzyme assay (Kinase-Glo), selectivity, PI3Kγ; format: biochemical; conditions: enzyme 2.29 μg/mL; ATP 10 μM; PIP2 60 μM; 2 hours
PI3Kγ, sequence (P48736 whole entry, species assumed): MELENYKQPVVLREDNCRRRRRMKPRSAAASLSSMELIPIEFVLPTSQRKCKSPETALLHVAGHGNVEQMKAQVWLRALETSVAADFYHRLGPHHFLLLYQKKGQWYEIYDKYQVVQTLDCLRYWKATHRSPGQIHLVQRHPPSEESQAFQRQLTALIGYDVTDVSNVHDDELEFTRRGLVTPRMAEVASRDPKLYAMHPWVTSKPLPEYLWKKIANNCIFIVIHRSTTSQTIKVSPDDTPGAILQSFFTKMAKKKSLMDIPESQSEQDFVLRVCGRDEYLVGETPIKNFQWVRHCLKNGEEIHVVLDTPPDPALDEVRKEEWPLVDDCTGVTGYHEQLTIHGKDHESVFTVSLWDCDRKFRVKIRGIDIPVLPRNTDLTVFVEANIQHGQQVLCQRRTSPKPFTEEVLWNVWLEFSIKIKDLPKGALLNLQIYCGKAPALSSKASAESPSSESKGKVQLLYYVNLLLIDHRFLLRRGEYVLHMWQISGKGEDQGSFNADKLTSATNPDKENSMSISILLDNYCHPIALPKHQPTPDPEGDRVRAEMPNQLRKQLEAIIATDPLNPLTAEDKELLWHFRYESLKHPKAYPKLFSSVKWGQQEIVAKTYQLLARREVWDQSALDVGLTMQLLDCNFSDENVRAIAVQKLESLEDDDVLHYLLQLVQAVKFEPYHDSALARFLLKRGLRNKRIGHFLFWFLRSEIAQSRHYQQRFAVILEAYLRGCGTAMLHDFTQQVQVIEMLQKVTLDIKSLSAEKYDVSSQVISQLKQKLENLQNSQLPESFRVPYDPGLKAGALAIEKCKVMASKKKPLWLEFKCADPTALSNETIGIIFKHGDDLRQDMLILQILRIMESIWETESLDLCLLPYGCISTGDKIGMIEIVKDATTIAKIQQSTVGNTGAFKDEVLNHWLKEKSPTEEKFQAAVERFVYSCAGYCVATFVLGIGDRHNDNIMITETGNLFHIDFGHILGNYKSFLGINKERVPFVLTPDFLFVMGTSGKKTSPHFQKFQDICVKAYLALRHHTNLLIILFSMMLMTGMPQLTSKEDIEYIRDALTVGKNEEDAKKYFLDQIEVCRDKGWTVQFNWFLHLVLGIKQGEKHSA
Description: The Kinase-Glo luminescent kinase assay kit (from Promega) was used to measure kinase activity. In this assay, amount of ATP remaining in solution following a kinase reaction is measured. […] The reaction mixture was incubated for 2 hours at room temperature. At the end of incubation period the equal volume of Kinase-Glo plus (Promega, V3772), was added per well and the luminescence was measured after incubating for 10 minutes at room temperature in dark. Results were calculated by measuring the luminescence units of test samples to blanks containing no enzyme.
The compounds of the present invention were tested for their selectivity for PI3Kδ over PI3Kα, PI3Kβ and PI3Kγ following the above assay using specific recombinant enzymes (Proteros, Germany) for each kinase. Assay condition of kinase assay (PI3Kα, PI3Kβ, PI3Kγ and PI3Kδ) was as follows.

[1] = tested on: IFN-γ release in mouse splenocytes; test: Phytohaemagglutinin (PHA)-induced interferon (IFN)-gamma release in mouse splenocytes; set-up: species or system C57BL/6 mouse; conditions: Splenocyte, PHA (10 μg/ml) for 48 hours, IFN-γ by ELISA, read-out: Cell Based IC50
Description: Effect of compounds on mitogen-induced IFN-γ release in mouse splenocytes was used to evaluate their potency in cell-based assay system [Blood (2010) 115: 2203-2213; Current Protocols in Immunology (2004) 3.12.1-3.12.20].
Mouse splenocytes were obtained from the spleen of a C57BL/6 mouse and plated at a density of 0.25 million cells/well in a 96 well tissue culture plate. The effect of the compounds to inhibit IFN-γ release was evaluated by treating the splenocytes with various concentrations of the test compounds followed by stimulation with PHA (10 μg/ml) for 48 hours. The IFN-γ release in the cell culture supernatant was quantified by ELISA as per the manufacturer's protocol (BD Biosciences, #555138).

[2] = tested on: eosinophil count in bronchoalveolar lavage fluid; test: House dust mite (HDM) induced chronic asthma model in Balb/c mice; format: in vivo; conditions: oral twice daily from week 3 to week 5; absolute eosinophil count in BAL fluid
Description: The protocol was followed as described in Am. J. Respir. Crit. Care Med., 2004; 169: 378-385. Female Balb/c mice were exposed to purified HDM (Dermatophagoides pteronyssinus) extract, intranasally (25 μg of protein in 20 μl of saline) for 5 days/week for up to five consecutive weeks. Compounds were administered orally twice daily from week 3 to week 5. Forty-eight hours after last HDM exposure, the animals were euthanized and bronchoalveolar lavage fluid was collected. The cell suspensions were processed and absolute eosinophil count was enumerated.

[3] = Solubility in Japanese Pharmacopeia First Fluid (JP1) and Second Fluid (JP2); format: physicochemical; conditions: thermodynamic from solid, room temperature
Description: A 10 mmol/L solution of the test compound was prepared in DMSO and dispensed 100 μL of 10 mmol/L DMSO stock solutions into labeled glass tubes in duplicate, one for Japanese Pharmacopeia First Fluid (JP1) and second for Japanese Pharmacopeia Second Fluid (JP2). After evaporation of DMSO from each tube, 500 μL of JP1 and JP2 fluid were added in each tube, respectively. These tubes were sonicated for 1 minute and placed on shaker for 30 minutes with an interval of 30 seconds at every 5 minute. Tubes were placed in dark at room temperature for 1 hour and solution was filtered through membrane filter. The filtrate was diluted 2-fold and 10-fold. The resulting test solutions was analyzed and quantified against the standards using UPLC (standard preparation-10 mmol/L solution in DMSO is serially diluted with 50% aqueous acetonitrile solution to prepare 2 solutions; 100 μmol/L standard solution and 5 μmol/L standard solution).

[4] = target: recombinant PI3K δ enzyme (Homo sapiens (Human), UniProt O00329); test: In vitro enzyme assay (Kinase-Glo luminescent kinase assay), PI3Kδ; format: biochemical
recombinant PI3K δ enzyme, sequence (O00329 whole entry, species assumed, canonical isoform): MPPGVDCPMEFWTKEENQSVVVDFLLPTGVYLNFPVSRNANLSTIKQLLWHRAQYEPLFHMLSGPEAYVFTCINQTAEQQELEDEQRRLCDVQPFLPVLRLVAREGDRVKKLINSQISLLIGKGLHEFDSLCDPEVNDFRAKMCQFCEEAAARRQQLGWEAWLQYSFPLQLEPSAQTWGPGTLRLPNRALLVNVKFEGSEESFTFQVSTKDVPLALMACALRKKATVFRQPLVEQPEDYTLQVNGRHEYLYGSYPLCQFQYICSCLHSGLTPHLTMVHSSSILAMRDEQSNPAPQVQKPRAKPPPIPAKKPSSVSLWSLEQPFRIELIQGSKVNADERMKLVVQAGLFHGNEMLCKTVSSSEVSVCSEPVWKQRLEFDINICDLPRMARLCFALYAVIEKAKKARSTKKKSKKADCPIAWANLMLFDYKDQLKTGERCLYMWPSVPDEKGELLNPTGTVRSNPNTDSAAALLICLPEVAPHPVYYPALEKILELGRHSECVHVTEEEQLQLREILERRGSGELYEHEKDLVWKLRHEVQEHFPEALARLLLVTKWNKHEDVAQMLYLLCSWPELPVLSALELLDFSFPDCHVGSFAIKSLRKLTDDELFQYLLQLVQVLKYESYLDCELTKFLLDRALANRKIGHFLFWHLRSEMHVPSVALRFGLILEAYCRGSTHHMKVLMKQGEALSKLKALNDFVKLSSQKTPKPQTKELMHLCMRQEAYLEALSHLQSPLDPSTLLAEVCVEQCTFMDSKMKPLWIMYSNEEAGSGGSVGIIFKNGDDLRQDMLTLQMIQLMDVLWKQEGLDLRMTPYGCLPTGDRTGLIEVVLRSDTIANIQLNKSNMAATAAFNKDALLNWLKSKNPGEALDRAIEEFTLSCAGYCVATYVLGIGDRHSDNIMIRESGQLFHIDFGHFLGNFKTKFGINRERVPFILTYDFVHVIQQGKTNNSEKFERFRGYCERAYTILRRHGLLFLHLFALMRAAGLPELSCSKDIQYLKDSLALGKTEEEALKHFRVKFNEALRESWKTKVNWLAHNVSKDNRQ
recombinant PI3K δ enzyme, sequence (P27986 whole entry partner, species assumed, canonical isoform): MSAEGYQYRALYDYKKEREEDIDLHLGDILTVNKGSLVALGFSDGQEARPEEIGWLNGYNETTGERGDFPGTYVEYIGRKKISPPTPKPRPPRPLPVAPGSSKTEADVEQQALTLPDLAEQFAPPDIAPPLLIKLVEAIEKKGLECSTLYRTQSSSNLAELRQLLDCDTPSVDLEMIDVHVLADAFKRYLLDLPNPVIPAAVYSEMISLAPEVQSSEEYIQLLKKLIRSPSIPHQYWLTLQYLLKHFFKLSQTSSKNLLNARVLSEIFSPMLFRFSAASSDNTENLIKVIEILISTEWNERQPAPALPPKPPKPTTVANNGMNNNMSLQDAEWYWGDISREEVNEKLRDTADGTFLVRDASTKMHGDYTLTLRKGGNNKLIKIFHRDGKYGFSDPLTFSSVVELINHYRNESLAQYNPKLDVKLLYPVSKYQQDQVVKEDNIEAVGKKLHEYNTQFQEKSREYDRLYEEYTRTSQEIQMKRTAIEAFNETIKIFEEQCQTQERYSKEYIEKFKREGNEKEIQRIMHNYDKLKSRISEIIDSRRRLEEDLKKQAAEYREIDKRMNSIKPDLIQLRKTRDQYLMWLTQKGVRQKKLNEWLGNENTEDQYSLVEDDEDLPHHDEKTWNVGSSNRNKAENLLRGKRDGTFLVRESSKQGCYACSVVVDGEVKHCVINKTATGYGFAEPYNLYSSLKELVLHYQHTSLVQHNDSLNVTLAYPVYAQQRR
Summary of the method: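 Each recombinant human PI3K isoform at 2.29 μg/mL with 60 μM PIP2 and 10 μM ATP in HEPES pH 7.4, NaCl, CHAPS, MgCl2, DTT, 2 hours at room temperature. Remaining ATP read by Kinase-Glo luminescence relative to no-enzyme blanks.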

[5] = tested on: eosinophil count in bronchoalveolar lavage fluid; test: Ovalbumin-induced airway eosinophilia model in Brown Norway rats; format: in vivo; conditions: oral; for ED50: bid, absolute eosinophil count in BAL fluid; for Percent inhibition of BAL eosinophil count at 3 mg/kg: ovalbumin challenge
Description: The protocols were followed in similar fashion as described in Clin. Exp. Immunol., 2001; 126:9-15 and J. Pharmacol. Exp. Ther., 2011; 337:145-54. Male Brown Norway rats were sensitized by intraperitoneal injection of a suspension of 1 mg of ovalbumin and 100 mg of aluminum hydroxide (in sterile 0.9% saline) on day 0 and 7. On day 14, the compounds were administered to the rats by oral gavage. One hour after oral administration, the animals were placed into a perspex chamber and exposed to an aerosol of 5% ovalbumin for ten minutes. Compounds were administered on Day 14 and Day 15 either once or twice daily. Forty-eight hours after ovalbumin challenge, the animals were euthanized and bronchoalveolar lavage fluid was collected. The cell suspensions were processed and absolute eosinophil count was enumerated.

PI3Kβ = PI3Kβ (Homo sapiens (Human), UniProt P42338); test: In vitro enzyme assay (Kinase-Glo), selectivity, PI3Kβ; format: biochemical; conditions: enzyme 2.29 μg/mL; ATP 10 μM; PIP2 60 μM; 2 hours
PI3Kβ, sequence (P42338 whole entry, species assumed): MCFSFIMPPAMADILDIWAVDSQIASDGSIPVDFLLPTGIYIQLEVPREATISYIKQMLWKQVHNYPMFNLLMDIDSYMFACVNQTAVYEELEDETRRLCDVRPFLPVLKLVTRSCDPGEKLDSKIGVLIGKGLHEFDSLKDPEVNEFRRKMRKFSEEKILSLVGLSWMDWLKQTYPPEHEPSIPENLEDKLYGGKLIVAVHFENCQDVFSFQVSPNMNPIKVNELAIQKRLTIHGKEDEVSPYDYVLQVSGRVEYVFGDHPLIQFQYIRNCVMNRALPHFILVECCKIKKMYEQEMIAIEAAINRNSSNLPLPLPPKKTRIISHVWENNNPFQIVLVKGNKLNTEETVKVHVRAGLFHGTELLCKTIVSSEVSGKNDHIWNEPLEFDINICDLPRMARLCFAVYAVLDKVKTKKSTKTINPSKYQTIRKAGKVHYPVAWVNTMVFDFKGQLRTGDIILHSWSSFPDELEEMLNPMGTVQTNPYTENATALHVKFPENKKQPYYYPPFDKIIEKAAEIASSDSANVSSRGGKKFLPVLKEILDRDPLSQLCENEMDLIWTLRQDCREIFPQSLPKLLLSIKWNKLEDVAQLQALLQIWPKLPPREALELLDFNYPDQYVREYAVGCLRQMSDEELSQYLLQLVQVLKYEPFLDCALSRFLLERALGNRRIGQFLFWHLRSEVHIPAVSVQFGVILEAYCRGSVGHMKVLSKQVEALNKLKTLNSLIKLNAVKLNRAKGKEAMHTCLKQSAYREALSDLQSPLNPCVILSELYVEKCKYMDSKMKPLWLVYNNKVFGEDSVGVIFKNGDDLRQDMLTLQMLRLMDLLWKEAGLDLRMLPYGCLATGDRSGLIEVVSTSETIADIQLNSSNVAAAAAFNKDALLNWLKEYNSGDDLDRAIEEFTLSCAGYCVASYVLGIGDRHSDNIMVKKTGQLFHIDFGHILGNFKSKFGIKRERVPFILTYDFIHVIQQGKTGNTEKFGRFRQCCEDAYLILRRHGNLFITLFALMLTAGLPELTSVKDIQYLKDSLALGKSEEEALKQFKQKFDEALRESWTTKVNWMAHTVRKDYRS
PI3Kβ, sequence (P27986 whole entry partner, species assumed): as the sequence (P27986 whole entry partner, species assumed, canonical isoform) above
Description: as §1, §2

[6] = pH 1.2, simulated gastric fluid, Japanese Pharmacopeia First Fluid (JP1), read-out: Solubility JP1
[7] = pH 6.8, aqueous buffer, Japanese Pharmacopeia Second Fluid (JP2), read-out: Solubility JP2
[8] = enzyme 2.29 μg/mL, ATP 10 μM, PIP2 60 μM, 2 hours

PI3Kα, sequence (P42336 whole entry, species assumed): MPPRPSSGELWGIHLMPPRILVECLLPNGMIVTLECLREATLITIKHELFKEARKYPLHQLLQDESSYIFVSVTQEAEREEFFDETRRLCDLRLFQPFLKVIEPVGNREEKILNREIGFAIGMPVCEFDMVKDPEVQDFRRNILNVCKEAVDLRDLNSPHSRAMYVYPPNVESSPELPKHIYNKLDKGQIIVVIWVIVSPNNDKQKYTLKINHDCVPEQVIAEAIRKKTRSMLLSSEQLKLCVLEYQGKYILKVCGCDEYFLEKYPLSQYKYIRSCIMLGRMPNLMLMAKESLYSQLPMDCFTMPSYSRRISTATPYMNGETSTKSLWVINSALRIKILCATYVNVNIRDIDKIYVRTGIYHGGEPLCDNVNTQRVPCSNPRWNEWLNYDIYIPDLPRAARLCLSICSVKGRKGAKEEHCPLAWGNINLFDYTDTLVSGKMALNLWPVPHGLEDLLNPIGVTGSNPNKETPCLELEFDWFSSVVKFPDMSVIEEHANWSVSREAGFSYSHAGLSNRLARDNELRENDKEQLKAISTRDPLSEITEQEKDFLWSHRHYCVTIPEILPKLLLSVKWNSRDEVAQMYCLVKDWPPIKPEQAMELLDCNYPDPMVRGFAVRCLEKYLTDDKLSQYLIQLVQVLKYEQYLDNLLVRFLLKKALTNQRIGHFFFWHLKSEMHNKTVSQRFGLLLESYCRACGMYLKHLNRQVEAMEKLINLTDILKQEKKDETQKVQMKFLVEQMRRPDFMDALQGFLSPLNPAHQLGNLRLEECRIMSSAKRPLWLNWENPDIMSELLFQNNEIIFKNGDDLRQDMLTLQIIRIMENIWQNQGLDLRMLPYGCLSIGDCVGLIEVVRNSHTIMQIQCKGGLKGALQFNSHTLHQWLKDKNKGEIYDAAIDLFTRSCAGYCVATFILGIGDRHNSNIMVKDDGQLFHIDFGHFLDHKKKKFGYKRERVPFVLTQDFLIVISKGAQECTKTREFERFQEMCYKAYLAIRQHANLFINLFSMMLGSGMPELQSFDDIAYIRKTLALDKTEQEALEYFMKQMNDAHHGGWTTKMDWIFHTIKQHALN
PI3Kα, sequence (P27986 whole entry partner, species assumed): as the sequence (P27986 whole entry partner, species assumed, canonical isoform) above

SMILES	pIC50 (PI3Kα)	pIC50 (PI3Kγ)	pIC50 [1]	solubility at 30 min [3, 6]	solubility at 30 min [3, 7]	pIC50 [4]	pIC50 [4, 8]	pIC50 (PI3Kβ)	ED50 [2]	ED50 [5]	Percent inhibition of BAL eosinophil count at 3 mg/kg [5]
Cc1nn(C)cc1-c1nc2c(nc(C(=O)N3CCC(N4CCOCC4)CC3)n2C)c(N2CCOCC2)c1F [compound 87, [5-(1,3-Dimethyl-1H-pyrazol-4-yl)-6-fluoro-3-methyl-7-(morpholin-4-yl)-3H-imidazo[4,5-b]pyridin-2-yl][4-(morpholin-4-yl)piperidin-1-yl]methanone]	< 5.00	< 5.00	7.33	–	–	8.52	8.52	< 5.00	–	0.8 mg/kg, bid	–
Cn1cc(-c2cc(N3CCOCC3)c3nc(C(=O)N4CCC5(CC4)COC5)[nH]c3n2)cn1 [compound 78, [5-(1-Methyl-1H-pyrazol-4-yl)-7-(morpholin-4-yl)-3H-imidazo[4,5-b]pyridin-2-yl](2-oxa-7-azaspiro[3.5]non-7-yl)methanone]	5.66	6.19	7.55	–	–	7.89	7.89	< 5.00	–	–	45%
Cc1nn(C)cc1-c1nc2[nH]c(C(=O)N3CCC(C(C)(C)O)CC3)nc2c(N2CCOCC2)c1F [compound 84, [5-(1,3-Dimethyl-1H-pyrazol-4-yl)-6-fluoro-7-(morpholin-4-yl)-3H-imidazo[4,5-b]pyridin-2-yl][4-(2-hydroxypropan-2-yl)piperidin-1-yl]methanone]	–	–	–	–	–	8.30	–	–	–	–	26%

The next lines start with results.

pIC50 (PI3Kα)	pIC50 (PI3Kγ)	pIC50 [1]	solubility at 30 min [3, 6]	solubility at 30 min [3, 7]	pIC50 [4]	pIC50 [4, 8]	pIC50 (PI3Kβ)	SMILES	ED50 [2]	ED50 [5]	Percent inhibition of BAL eosinophil count at 3 mg/kg [5]
< 6.00	5.93	6.95	834 µg/mL (≈ 1640 µM)	286 µg/mL (≈ 561 µM)	–	–	–	C[C@@H]1CN(C2CCN(C(=O)c3nc4c(N5CCOCC5)nc(-c5cnn(C)c5)nc4[nH]3)CC2)C[C@H](C)O1 [compound 5, {4-[cis-2,6-Dimethylmorpholin-4-yl]piperidin-1-yl}[2-(1-methyl-1H-pyrazol-4-yl)-6-(morpholin-4-yl)-9H-purin-8-yl]methanone]	1.6 mg/Kg, bid	–	–
–	–	–	> 1020 µg/mL	424 µg/mL (≈ 827 µM)	8.52	–	–	Cc1nn(C)cc1-c1nc2[nH]c(C(=O)N3CCC(N4CCOCC4)CC3)nc2c(N2CCOCC2)c1F [compound 96, [5-(1,3-Dimethyl-1H-pyrazol-4-yl)-6-fluoro-7-(morpholin-4-yl)-3H-imidazo[4,5-b]pyridin-2-yl][4-(morpholin-4-yl)piperidin-1-yl]methanone]	–	2.5 mg/kg, bid	–
< 6.00	< 6.00	8.22	> 1200 µg/mL	170 µg/mL (≈ 353 µM)	7.85	7.85	< 5.00	Cn1cc(-c2nc(N3CCOCC3)c3nc(C(=O)N4CCC(N5CCOCC5)CC4)[nH]c3n2)cn1 [Compound No. 58, [2-(1-methyl-1H-pyrazol-4-yl)-6-(morpholin-4-yl)-9H-purin-8-yl][4-(morpholin-4-yl)piperidin-1-yl]methanone]	0.1 mg/Kg, bid	0.3 mg/kg, bid	–
< 6.00	< 6.00	7.26	–	–	7.82	7.82	< 5.00	Cn1cc(-c2nc(N3CCOCC3)c3nc(C(=O)N4CCC5(CC4)COC5)[nH]c3n2)cn1 [compound 3, [2-(1-Methyl-1H-pyrazol-4-yl)-6-(morpholin-4-yl)-9H-purin-8-yl](2-oxa-7-azaspiro[3.5]non-7-yl)methanone]	–	–	46%
